What was measured:
[1] = target: human recombinant LPA1 Lysophospholipid receptor (Homo sapiens, UniProt Q92633); experiment: Calcium flux assay using FLIPR, LPA1 antagonist activity; format: cell-based; conditions: for IC50: ChemiScreen calcium-optimized stable cell line, inhibition of agonist-induced calcium flux
Description: (§1) Calcium Flux Assay Using Fluorometric Imaging Plate Reader (FLIPR)
Cell Culture Conditions: The ChemiScreen Calcium-optimized stable cell line containing the human recombinant LPA1 Lysophospholipid receptor was purchased from Chemicon International, Inc./Millipore. The cells were cultured in DMEM-high glucose supplemented with 10% fetal bovine serum, 2 mM glutamine, 100 U/mL penicillin/100 μg/mL streptomycin, 1× non-essential amino acids, 10 mM HEPES and 0.25 mg/mL Geneticin. Cells were harvested with trypsin-EDTA and counted using ViaCount reagent. The cell suspension volume was adjusted to 2.0×10^5 cells/mL with complete growth media. Aliquots of 50 μL were dispensed into 384 well black/clear tissue culture treated plates (BD) and the microplates were placed in a 37° C. incubator overnight. The following day plates were used in the assay.
Dye Loading and Assay: Loading Buffer (FLIPR Calcium-4, Molecular Devices) was prepared by dissolving the contents of one bottle into 100 mL Hank's Balanced Salt Solution containing 20 mM HEPES and 2.5 mM probenecid. Plates were loaded onto Biotek plate washer and growth media was removed and replaced with 20 μL of Hank's Balanced Salt Solution containing 20 mM HEPES and 2.5 mM probenecid, followed by 25 μL of Loading Buffer. The plates were then incubated for 30 minutes at 37° C.
During the incubation, test compounds were prepared by adding 90 μL of HBSS/20 mM HEPES/0.1% BSA buffer to 2 μL of serially diluted compounds. To prepare serial dilutions, 10 mM stocks of compounds were prepared in 100% DMSO. The compound dilution plate was set up as follows: well #1 received 29 μL of stock compound and 31 μL DMSO; wells 2-10 received 40 μL of DMSO; mixed and transferred 20 μL of solution from well #1 into well #2; continued with 1:3 serial dilutions out 10 steps; transferred 2 μL of diluted compound into duplicate wells of 384 well “assay plate” and then added the 90 μL of buffer.
(§2) After incubation, both the cell and “assay” plates were brought to the FLIPR and 20 μL of the diluted compounds were transferred to the cell plates by the FLIPR. Compound addition was monitored by FLIPR to detect any agonist activity of the compounds. Plates were then incubated for 30 minutes at RT protected from light. After the incubation, plates were returned to the FLIPR and 20 μL of 4.5× concentrated agonist was added to the cell plates. During the assay, fluorescence readings were taken simultaneously from all 384 wells of the cell plate every 1.5 seconds. Five readings were taken to establish a stable baseline, then 20 μL of sample was rapidly (30 μL/sec) and simultaneously added to each well of the cell plate. The fluorescence was continuously monitored before, during and after sample addition for a total elapsed time of 100 seconds. Responses (increase in peak fluorescence) in each well following agonist addition was determined. The initial fluorescence reading from each well, prior to ligand stimulation, was used as zero baseline value for the data from that well. The responses were expressed as % inhibition of the buffer control.

[2] = target: T1, LPA3 (Homo sapiens, UniProt Q9UBY5); experiment: Calcium flux assay using FLIPR, LPA3 antagonist activity; format: cell-based
T1 sequence (Q9UBY5 1-353): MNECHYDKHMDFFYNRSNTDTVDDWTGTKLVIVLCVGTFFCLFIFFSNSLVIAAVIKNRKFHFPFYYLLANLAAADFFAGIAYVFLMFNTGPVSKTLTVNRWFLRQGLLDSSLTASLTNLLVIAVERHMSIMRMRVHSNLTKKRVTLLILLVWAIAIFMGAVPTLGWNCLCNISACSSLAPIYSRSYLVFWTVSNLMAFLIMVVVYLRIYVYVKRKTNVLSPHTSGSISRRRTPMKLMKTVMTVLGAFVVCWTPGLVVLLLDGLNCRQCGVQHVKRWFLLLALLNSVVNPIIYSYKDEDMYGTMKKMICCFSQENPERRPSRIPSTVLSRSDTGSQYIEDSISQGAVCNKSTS
Description: as §1, §2

Sequence of human recombinant LPA1 Lysophospholipid receptor (Q92633 whole entry): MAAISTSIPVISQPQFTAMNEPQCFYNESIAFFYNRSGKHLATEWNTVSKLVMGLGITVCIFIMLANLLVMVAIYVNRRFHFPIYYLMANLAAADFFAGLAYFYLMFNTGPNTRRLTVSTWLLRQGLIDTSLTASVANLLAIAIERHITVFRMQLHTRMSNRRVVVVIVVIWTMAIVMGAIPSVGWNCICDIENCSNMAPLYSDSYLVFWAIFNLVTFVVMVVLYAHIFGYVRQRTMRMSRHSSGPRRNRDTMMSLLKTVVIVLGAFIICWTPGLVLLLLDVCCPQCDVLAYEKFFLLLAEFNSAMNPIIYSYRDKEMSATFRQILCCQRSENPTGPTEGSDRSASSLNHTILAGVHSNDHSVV

`COc1cc(F)ccc1C(=O)/C(=N\C1CCCC1)n1ncc(C#N)c1N` [Example 4, (E)-5-Amino-1-(1-(cyclopentylimino)-2-(4-fluoro-2-methoxyphenyl)-2-oxoethyl)-1H-pyrazole-4-carbonitrile] was tested, and the inhibition at 30 µM [1] was 49% and the inhibition at 30 µM [2] was 3%.

Compound `COc1ccc(C(=O)/C(=N\C2CCCCC2)n2ncc(C#N)c2N)c(OC)c1` [Example 9, (E)-5-Amino-1-(1-(cyclohexylimino)-2-(2,4-dimethoxyphenyl)-2-oxoethyl)-1H-pyrazole-4-carbonitrile] has an inhibition at 30 µM [1] of 84.9%, an IC50 [1] of 510 nM and an inhibition at 30 µM [2] of 29%.

`N#Cc1cnn(/C(=N/C2CCCC2)C(=O)c2ccc(Br)cc2)c1N` [Example 3, (E)-5-Amino-1-(1-(cyclopentylimino)-2-(4-bromophenyl)-2-oxoethyl)-1H-pyrazole-4-carbonitrile] gave an inhibition at 30 µM [1] of 96%, an IC50 [1] of 2940 nM and an inhibition at 30 µM [2] of under 1%.

With `COc1cc2ccccc2cc1C(=O)/C(=N\C1CCCC1)n1ncc(C#N)c1N` [Example 7, (E)-5-Amino-1-(1-(cyclopentylimino)-2-(3-methoxynaphthalen-2-yl)-2-oxoethyl)-1H-pyrazole-4-carbonitrile] the inhibition at 30 µM [1] was 77.5%, the IC50 [1] was 806 nM and the inhibition at 30 µM [2] was 2%.

`CCc1ccc(C(=O)/C(=N\C2CCCC2)n2ncc(C#N)c2N)cc1` [Example 2, (E)-5-Amino-1-(1-(cyclopentylimino)-2-(4-ethylphenyl)-2-oxoethyl)-1H-pyrazole-4-carbonitrile] gave an inhibition at 30 µM [1] of 100%, an IC50 [1] of 586 nM and an inhibition at 30 µM [2] of 13%.

In the case of `COc1cc(OCc2ccccc2)ccc1C(=O)/C(=N\C1CCCC1)n1ncc(C#N)c1N` [Example 11, (E)-5-Amino-1-(2-(4-benzyloxy-2-methoxyphenyl)-1-(cyclopentylimino)-2-oxoethyl)-1H-pyrazole-4-carbonitrile], the inhibition at 30 µM [1] is reported as 48% and the inhibition at 30 µM [2] is reported as 23%.

Compound `COc1cc(C(=O)/C(=N\C2CCCC2)n2ncc(C#N)c2N)cc(OC)c1OC` [Example 12, (E)-5-Amino-1-(1-(cyclopentylimino)-2-(3,4,5-trimethoxyphenyl)-2-oxoethyl)-1H-pyrazole-4-carbonitrile] has an inhibition at 5 µM ([1]; @ 5 μM) of 13% and an inhibition at 30 µM [2] of 14%.

With `COc1ccc(C(=O)/C(=N\C2CCCC2)n2ncc(C#N)c2N)c(F)c1` [Example 5, (E)-5-Amino-1-(1-(cyclopentylimino)-2-(2-fluoro-4-methoxyphenyl)-2-oxoethyl)-1H-pyrazole-4-carbonitrile] the inhibition at 30 µM [1] was 99.8%, the IC50 [1] was 74 nM and the inhibition at 30 µM [2] was under 5%.

`COc1cc(OC)c(C(=O)/C(=N\C2CCCC2)n2ncc(C#N)c2N)cc1OC` [Example 6, (E)-5-Amino-1-(1-(cyclopentylimino)-2-(2,4,5-trimethoxyphenyl)-2-oxoethyl)-1H-pyrazole-4-carbonitrile] was tested, and the inhibition at 10 µM ([1]; @ 10 μM) was 79.2%, the IC50 [1] was 3360 nM and the inhibition at 30 µM [2] was 7.5%.

`COc1cc2c(cc1C(=O)/C(=N\C1CCCC1)n1ncc(C#N)c1N)CCC2` [Example 8, (E)-5-Amino-1-(1-(cyclopentylimino)-2-(6-methoxy-2,3-dihydro-1H-inden-5-yl)-2-oxoethyl)-1H-pyrazole-4-carbonitrile] showed an inhibition at 30 µM [1] of 78.4%, an IC50 [1] of 825 nM and an inhibition at 30 µM [2] of 19.1%.

Compound `COc1ccc(C(=O)/C(=N\C(C)C)n2ncc(C#N)c2N)c(OC)c1` [Example 10, (E)-5-Amino-1-(2-(2,4-dimethoxyphenyl)-1-(iso-propylimino)-2-oxoethyl)-1H-pyrazole-4-carbonitrile] has an inhibition at 30 µM [1] of 88.2%, an IC50 [1] of 111 nM and an inhibition at 30 µM [2] of 21%.

Work on `COc1ccc(C(=O)/C(=N\C2CCCC2)n2ncc(C#N)c2N)c(OC)c1` [Example 1, (E)-5-Amino-1-(1-(cyclopentylimino)-2-(2,4-dimethoxyphenyl)-2-oxoethyl)-1H-pyrazole-4-carbonitrile] yielded an inhibition at 30 µM [1] of 98%, an IC50 [1] of 79.8 nM and an inhibition at 30 µM [2] of 22%.

Reference: US9169215B2, “LPAR—substituted cyanopyrazole compounds” (Hoffmann-La Roche Inc., priority 2012, dated 2015)
